Test results as given in US20240350430A1, “GROWTH INHIBITOR OF METASTATIC HUMAN PROSTATE CANCER CELLS” (Watanabe Oyster Laboratory Co., Ltd., priority 2021, published 2024).

Experiments:
PC-3 cells [1] = assay: Western blot of protein expression levels in PC-3 cells; format: cell-based, human; conditions: DHMBA 10 μM, three days
Method: The PC-3 cells (1×10^6 cells/10 ml, 100-mm dish) were cultured in a DMEM culture fluid containing 10% of FBS, 1% of P/S, and 1% of fungizone under 5% of CO2, at 37° C., for three days. In addition, the culture fluid contained the DHMBA (10 μM). After the culture, the cells were adjusted by adding a cell lysis buffer (Cell Signaling Technology, Danvers, MA, USA) containing proteolytic enzyme and a protein phosphatase activity inhibitor. The cell solution was centrifuged at 17,000×g at 4° C. for 10 minutes to collect the supernatant. An amount of protein in the supernatant was measured using Bio-Rad Protein Assay Dye (Bio-Rad Laboratories, Inc., Hercules, CA, USA) with albumin as reference protein. Protein samples were stored in a freezer at −80° C. until being used. Using 40 μg of a protein sample solution, the product was added to SDS polyacrylamide gel electrophoresis (SDS-PAGE, 12%) and separated. After that, the protein molecules were transferred to a nylon membrane. Immunoblot was performed on the membrane using an antibody that specifically bound to the protein molecules. The antibodies, such as Ras (cat. no. 3339, rabbit), Akt (cat. no. 9272, rabbit), mitogen-activated protein kinase (MAPK: cat. no. 4695, rabbit), phosphorylated-MAPK (cat. no. 4370, rabbit), mechanistic target of rapamycin (mTOR, cat. no. 4517, mouse), Rb (cat. no. 9309, mouse), p21 (cat. no. 2947, rabbit), caveolin-1 (cat. no. 3267, rabbit), and β-actin (cat. no. 3700, mouse), were purchased from Cell Signaling Technology (Danvers, MA, USA). Also, p53 (cat. no. sc-126, mouse), NF-κB p65 (cat. no. sc-109, rabbit), and integrin β1 (cat. no. sc-13590, mouse) were obtained from Santa Cruz Biotechnology, Inc. (Santa Cruz, CA, USA). In addition, rabbit anti-regucalcin antibody was purchased from Sigma-Aldrich (cat. no. HPA029103, rabbit). Target proteins were incubated at low temperature for 16 hours using the primary antibodies described above. After that, using a secondary antibody of horseradish peroxidase-conjugated secondary antibodies (Santa Cruz Biotechnology, Inc., mouse sc-2005 or rabbit sc-2305; diluted 1:1,000), incubation was performed for 60 minutes at room temperature. After that, protein bands were illuminated with chemiluminescence substrate (cat. no. 34577, Thermo Scientific, Rockford, IL, USA) and exposed and detected on X-ray films using a developer.
(§1) The PC-3 cells (1×10^6 cells/10 ml, 100-mm dish) were cultured under 5% of CO2, at 37° C., for three days in a DMEM culture fluid containing 10% of FBS, 1% of P/S, and 1% of fungizone. In addition, the culture fluid contained the DHMBA (10 μM). After the culture, the cells were adjusted by adding a cell lysis buffer (Cell Signaling Technology, Danvers, MA, USA) containing proteolytic enzyme and a protein phosphatase activity inhibitor. Using 40 μg of a protein sample solution, the product was separated by SDS polyacrylamide gel electrophoresis (SDS-PAGE, 12%). After that, the protein molecules were transferred to a nylon membrane. Immunoblot was performed on the membrane using an antibody that specifically bound to the protein molecules.
as §1, with “In FIG. 5(G), the” for “The”, “molecules. […]” for “molecules.”

PC-3 cells [2] = assay: Cell migration scratch assay, PC-3 cells; format: cell-based, human; conditions: DHMBA 1, 10, 100, or 1000 μM, 48 hours
Method: The migration of the prostate cancer PC-3 and DU-145 cells was examined using a scratch assay. The PC-3 and DU-145 cells (the cell number of 2×10^5/in 1 ml of a culture fluid per hole using a 24-hole plate) were cultured in a DMEM culture fluid containing 10% of FBS, 1% of P/S, and 1% of fungizone under 5% of CO2, at 37° C., for 48 hours, and a straight line scratch was performed using a pipette tip (200 μl) when the cells reached confluence. Free cells were washed with PBS to be removed, the above-described culture fluid (containing 0.1, 1, 10, 100, or 1000 μM of the DHMBA) was added, and the cells were cultured for 48 hours. After the culture, intervals of cell-free parts were measured.
The PC-3 and DU-145 cells (the cell number of 2× 10^5/1 ml of a culture fluid per hole using a 24-hole plate) were cultured under 5% of CO2, at 37° C., for 48 hours in a DMEM culture fluid containing 10% of FBS, 1% of P/S, and 1% of fungizone, and a straight line scratch was performed using a pipette tip (200 μl) when the cells reached confluence. Free cells were washed with PBS to be removed, the above-described culture fluid (containing 0.1, 1, 10, 100, or 1000 μM of the DHMBA) was added, and the cells were cultured for 48 hours. After the culture, intervals of cell-free parts were measured. […]

COc1c(O)cc(CO)cc1O [DHMBA, 3,5-dihydroxy-4-methoxybenzyl alcohol]
expression level of Akt (PC-3 cells [1]): significantly inhibited
expression level of MAP kinase (PC-3 cells [1]): significantly inhibited
expression level of NF-κB p65 (PC-3 cells [1]): significantly decreased
expression level of PI3 kinase (PC-3 cells [1]): significantly inhibited
expression level of Ras (PC-3 cells [1]): significantly inhibited
expression level of Rb (PC-3 cells [1]): significantly increased
expression level of caveolin-1 (PC-3 cells [1]): significantly decreased
expression level of integrin β1 (PC-3 cells [1]): significantly decreased
expression level of mTOR (PC-3 cells [1]): significantly inhibited
expression level of p21 (PC-3 cells [1]): significantly increased
expression level of p53 (PC-3 cells [1]): significantly increased
expression level of phospho-MAP kinase (PC-3 cells [1]): significantly inhibited
expression level of regucalcin (PC-3 cells [1]): significantly increased
level of activated caspase 3 (cleaved caspase-3) (PC-3 cells [1]): increased
level of caspase 3 (PC-3 cells [1]): increased
migration (PC-3 cells [2]): significantly inhibited
